Laboratory results as given in article PMC8286840, “Identifying SARS-CoV-2 antiviral compounds by screening for small molecule inhibitors of Nsp3 papain-like protease” (Biochemical Journal, 2021).
Structures can show the parent of a compound that is named as a salt. Where two headings read alike, the source gives them in different places.

Key:
[1] = molecular target: T1, SARS-CoV-2 PLpro (nsp3 1564–1878) (Severe acute respiratory syndrome coronavirus 2, UniProt P0DTD1); experiment: biochemical; design: FRET-quenched peptide (Pro3) cleavage by PLpro, 10 min pre-incubation, slope over 20 min, normalised to no-compound control; conditions: low concentration screen, read-out: % of control remaining
[2] = molecular target: T1, SARS-CoV-2 PLpro (nsp3 1564–1878); experiment: biochemical; design: FRET-quenched peptide (Pro3) cleavage by PLpro, 10 min pre-incubation, slope over 20 min, normalised to no-compound control; conditions: high concentration screen, read-out: % of control remaining

## COc1cc2c(CCNC(C)=O)c[nH]c2cc1O [6-Hydroxymelatonin]
[1]; Well no.=654
  remaining activity at 1.25 µM: 95.9%
[2]; Well no.=654
  remaining activity at 3.75 µM: 96.7%

## CN1[C@@H]2CC(=O)C[C@H]1[C@H](O)C2 [6-Hydroxytropinone]
[1]; Well no.=3639
  remaining activity at 1.25 µM: 99.8%
[2]; Well no.=3639
  remaining activity at 3.75 µM: 104%

## CCCCCCCCC(=O)NCc1cc(OC)c(O)cc1I [6-Iodonordihydrocapsaicin]
[1]; Well no.=5963
  remaining activity at 1.25 µM: 95.9%
[2]; Well no.=5963
  remaining activity at 3.75 µM: 99%

## CC(C)CCC[C@@H](C)[C@H]1CC[C@H]2[C@@H]3CC(=O)[C@H]4C[C@@H](O)CC[C@]4(C)[C@H]3CC[C@]12C [6-Ketocholestanol]
[1]; Well no.=6021
  remaining activity at 1.25 µM: 94.9%
[2]; Well no.=6021
  remaining activity at 3.75 µM: 86.6%

## Cc1cccc(C#Cc2ccccc2)n1 [6-Methyl-2-(phenylethynyl)pyridine hydrochloride]
[1]; Well no.=834
  remaining activity at 1.25 µM: 98.2%
[2]; Well no.=834
  remaining activity at 3.75 µM: 95%

## O=Nc1ccc2oc(=O)ccc2c1 [6-Nitroso-1,2-benzopyrone]
[1]; Well no.=1099
  remaining activity at 1.25 µM: 95.7%
[2]; Well no.=1099
  remaining activity at 3.75 µM: 104%

## OC[C@H]1O[C@@H](n2cnc3c(=S)nc[nH]c32)[C@H](O)[C@@H]1O [6-_Thioinosine]
[1]; Well no.=7724
  remaining activity at 1.25 µM: 99.8%
[2]; Well no.=7724
  remaining activity at 3.75 µM: 96.5%

## Cc1ccc2c(c1)C1(CCN(CCc3nc(-c4ccccc4)oc3C)CC1)OC(=O)N2 [6-methyl-1'-(2-(5-methyl-2-phenyloxazol-4-yl)ethyl)spiro[benzo[d][1,3]oxazine-4,4'-piperidin]-2(1H)-one]
[1]; Well no.=5915
  remaining activity at 1.25 µM: 93.5%
[2]; Well no.=5915
  remaining activity at 3.75 µM: 93.6%

## Nc1nc2ccccc2c2ccccc12 [6-phenanthridinamine]
[1]; Well no.=5389
  remaining activity at 1.25 µM: 106%
[2]; Well no.=5389
  remaining activity at 3.75 µM: 102%

## CN(C)CCSSCCNC(=O)C1CCN(C(=O)CSc2ccc(Cl)cc2)CC1 [6H05 (trifluoroacetate)]
[1]; Well no.=6658
  remaining activity at 1.25 µM: 103%
[2]; Well no.=6658
  remaining activity at 3.75 µM: 106%

## CCCCCCCCCCC/C=C/CCCCCC(=O)O [7(E)-Nonadecenoic acid]
[1]; Well no.=4366
  remaining activity at 1.25 µM: 105%
[2]; Well no.=4366
  remaining activity at 3.75 µM: 97.4%

## CCCCCCCCCCC/C=C\CCCCCC(=O)O [7(Z)-Nonadecenoic acid]
[1]; Well no.=4364
  remaining activity at 1.25 µM: 107%
[2]; Well no.=4364
  remaining activity at 3.75 µM: 100%

## CCCCCCCCCCC/C=C\C(C)(C)/C=C\CCCC(=O)O [7,7-Dimethyleicosadienoic acid]
[1]; Well no.=4313
  remaining activity at 1.25 µM: 101%
[1]; Well no.=4412
  remaining activity at 1.25 µM: 100%
[2]; Well no.=4313
  remaining activity at 3.75 µM: 99.2%
[2]; Well no.=4412
  remaining activity at 3.75 µM: 101%

## C[C@H](O)[C@H](O)C1=Nc2c(nc(N)[nH]c2=O)NC1 [7,8-Dihydro-L-biopterin]
[1]; Well no.=7401
  remaining activity at 1.25 µM: 110%
[2]; Well no.=7401
  remaining activity at 3.75 µM: 102%

## O=c1ccc2ccc(O)c(O)c2o1 [7,8-dihydroxy-2H-chromen-2-one]
[1]; Well no.=5782
  remaining activity at 1.25 µM: 105%
[2]; Well no.=5782
  remaining activity at 3.75 µM: 108%

## COc1cc2c(cc1-c1c(C)noc1C)ncc1[nH]c(=O)n([C@H](C)c3ccccn3)c12 [7-(3,5-dimethyl-4-isoxazolyl)-8-methoxy-1-[(1R)-1-(2-pyridinyl)ethyl]-1,3-dihydro-2H-imidazo[4,5-c]quinolin-2-one]
[1]; Well no.=5813
  remaining activity at 1.25 µM: 101%
[2]; Well no.=5813
  remaining activity at 3.75 µM: 102%

## CC(=O)OCC1=C(C(=O)O)N2C(=O)[C@@H](N)[C@H]2SC1 [7-Aminocephalosporanic acid]
[1]; Well no.=5286
  remaining activity at 1.25 µM: 98.5%
[2]; Well no.=5286
  remaining activity at 3.75 µM: 96%

## O=c1cc(-c2ccccc2)[nH]c2nc(Cl)ccc12 [7-Chloro-4-hydroxy-2-phenyl-1,8-naphthyridine]
[1]; Well no.=324
  remaining activity at 1.25 µM: 98.8%
[2]; Well no.=324
  remaining activity at 3.75 µM: 99.1%

## O=C(O)c1cc(O)c2ccc(Cl)cc2n1 [7-Chlorokynurenic acid]
[1]; Well no.=581
  remaining activity at 1.25 µM: 104%
[2]; Well no.=581
  remaining activity at 3.75 µM: 103%

## O=c1cc(-c2ccccc2)oc2cc(O)ccc12 [7-Hydroxyflavone]
[1]; Well no.=3293
  remaining activity at 1.25 µM: 97.8%
[2]; Well no.=3293
  remaining activity at 3.75 µM: 103%

## O=[N+]([O-])c1cccc2cn[nH]c12 [7-Nitroindazole]
[1]; Well no.=955
  remaining activity at 1.25 µM: 107%
[2]; Well no.=955
  remaining activity at 3.75 µM: 100%

## O=C(CCCCCCc1ccccc1)c1ncc(-c2ccccn2)o1 [7-phenyl-1-[5-(2-pyridinyl)-1,3-oxazol-2-yl]-1-heptanone]
[1]; Well no.=5997
  remaining activity at 1.25 µM: 92.2%
[2]; Well no.=5997
  remaining activity at 3.75 µM: 91.9%

## O=c1ccc2cc3ccoc3cc2o1 [7H-furo[3,2-g]chromen-7-one]
[1]; Well no.=5431
  remaining activity at 1.25 µM: 101%
[2]; Well no.=5431
  remaining activity at 3.75 µM: 104%

## CCCCC[C@H](O)/C=C/C=C/C=C/[C@H](O)C/C=C\CCCC(=O)O [8(R),15(S)-DIHETE all trans]
[1]; Well no.=4377
  remaining activity at 1.25 µM: 102%
[2]; Well no.=4377
  remaining activity at 3.75 µM: 105%

## CCCCC[C@H](O)/C=C/C=C\C=C\[C@@H](O)C/C=C\CCCC(=O)O [8(S),15(S)-DIHETE]
[1]; Well no.=4371
  remaining activity at 1.25 µM: 102%
[2]; Well no.=4371
  remaining activity at 3.75 µM: 99.4%

## CCCCC/C=C\C/C=C\C/C=C\CCCCCCC(=O)O [8(Z), 11(Z), 14(Z)-Eicosatrienoic Acid]
[1]; Well no.=4548
  remaining activity at 1.25 µM: 91.1%
[2]; Well no.=4548
  remaining activity at 3.75 µM: 96.4%

## CCCCCCCCCCC/C=C\CCCCCCC(=O)O [8(Z)-Eicosenoic acid]
[1]; Well no.=4404
  remaining activity at 1.25 µM: 102%
[2]; Well no.=4404
  remaining activity at 3.75 µM: 102%

## Cn1c(=O)c2c(nc(/C=C/c3cccc(Cl)c3)n2C)n(C)c1=O [8-(3-Chlorostyryl)caffeine]
[1]; Well no.=727
  remaining activity at 1.25 µM: 100%
[2]; Well no.=727
  remaining activity at 3.75 µM: 97.2%

## Nc1ncnc2c1nc(Sc1ccc(Cl)cc1)n2C1OC2COP(=O)(O)O[C@@H]2[C@@H]1O (stereo partly shown) [8-(4-Chlorophenylthio)-cAMP sodium]
[1]; Well no.=126
  remaining activity at 1.25 µM: 104%
[2]; Well no.=126
  remaining activity at 3.75 µM: 105%

## Nc1ncnc2c1nc(Br)n2[C@@H]1O[C@@H]2COP(=O)(O)O[C@H]2[C@H]1O [8-Bromo-cAMP sodium]
[1]; Well no.=129
  remaining activity at 1.25 µM: 108%
[2]; Well no.=129
  remaining activity at 3.75 µM: 111%

## Nc1nc2c(nc(Br)n2[C@@H]2O[C@@H]3COP(=O)(O)O[C@H]3[C@H]2O)c(=O)[nH]1 [8-Bromo-cGMP sodium]
[1]; Well no.=214
  remaining activity at 1.25 µM: 102%
[2]; Well no.=214
  remaining activity at 3.75 µM: 102%

## Cn1c(=O)c2[nH]c(C3CCCC3)nc2n(C)c1=O [8-Cyclopentyl-1,3-dimethylxanthine]
[1]; Well no.=723
  remaining activity at 1.25 µM: 98.4%
[2]; Well no.=723
  remaining activity at 3.75 µM: 101%

## CCCn1c(=O)c2[nH]c(C3CCCC3)nc2n(CCC)c1=O [8-Cyclopentyl-1,3-dipropylxanthine]
[1]; Well no.=675
  remaining activity at 1.25 µM: 93.6%
[2]; Well no.=675
  remaining activity at 3.75 µM: 97.1%

## Nc1nc2c([nH]c(=O)n2[C@H]2C[C@H](O)[C@@H](CO)O2)c(=O)[nH]1 [8-Hydroxy-2'-deoxyguanosine]
[1]; Well no.=7113
  remaining activity at 1.25 µM: 105%
[2]; Well no.=7113
  remaining activity at 3.75 µM: 105%
